According to publication PMC7374097, “UGT2B17 modifies drug response in chronic lymphocytic leukaemia” (British Journal of Cancer, 2020):
Where two headings read alike, the source gives them in different places.

T1: human liver microsomes (Homo sapiens, UniProt P22310)
T1 sequence (P22310 29-534): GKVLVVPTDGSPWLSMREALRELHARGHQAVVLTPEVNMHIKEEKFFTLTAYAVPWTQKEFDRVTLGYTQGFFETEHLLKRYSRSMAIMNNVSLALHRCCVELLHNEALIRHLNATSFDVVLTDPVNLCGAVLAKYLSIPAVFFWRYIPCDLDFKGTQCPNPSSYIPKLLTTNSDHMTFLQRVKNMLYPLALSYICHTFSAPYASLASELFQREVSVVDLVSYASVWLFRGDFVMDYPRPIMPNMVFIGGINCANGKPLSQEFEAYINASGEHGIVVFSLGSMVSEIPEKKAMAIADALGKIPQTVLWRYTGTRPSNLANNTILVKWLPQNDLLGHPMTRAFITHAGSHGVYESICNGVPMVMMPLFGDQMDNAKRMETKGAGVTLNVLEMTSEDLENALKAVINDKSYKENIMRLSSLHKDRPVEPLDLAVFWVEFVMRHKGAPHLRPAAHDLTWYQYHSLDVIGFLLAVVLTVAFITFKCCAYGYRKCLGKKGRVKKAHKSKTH

T2: UGT1A4 (Homo sapiens, UniProt P22310)
T2 sequence (P22310 29-534): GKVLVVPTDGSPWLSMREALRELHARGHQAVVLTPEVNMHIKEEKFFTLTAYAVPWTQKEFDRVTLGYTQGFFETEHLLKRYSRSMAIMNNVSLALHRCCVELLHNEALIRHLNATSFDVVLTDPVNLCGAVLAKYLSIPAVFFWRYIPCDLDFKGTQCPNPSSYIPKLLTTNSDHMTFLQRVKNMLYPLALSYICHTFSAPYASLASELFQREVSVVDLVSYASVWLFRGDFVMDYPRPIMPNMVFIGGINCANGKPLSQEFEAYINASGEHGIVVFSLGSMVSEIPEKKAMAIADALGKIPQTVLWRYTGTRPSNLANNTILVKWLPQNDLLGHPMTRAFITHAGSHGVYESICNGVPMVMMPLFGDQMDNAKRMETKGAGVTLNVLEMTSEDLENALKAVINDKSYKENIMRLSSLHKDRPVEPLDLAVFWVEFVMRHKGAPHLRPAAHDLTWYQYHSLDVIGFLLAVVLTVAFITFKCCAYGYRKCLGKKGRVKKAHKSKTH


Tests used:
[1] = system: MEC1 cells; assay: MTS cell viability assay, MEC1 cells (control or overexpressing UGT2B17); type: cell-based, human; conditions: for IC50: Homo sapiens, 72 h; for Fold over control: MEC1, IC50 2B17 / CTRL
Method: (§1) Cells were plated at 1 × 10^4 cells/well (MEC1) or at 5 × 10^4 cells/well (JVM2) in 96-well U-bottom tissue culture plates (BD Bioscience, Mississauga, ON, Canada). Drugs were added at time of plating at concentrations ranging from 1 nM to 100 µM (7–9 concentrations per drug), depending on the drug and based on cell viability. MTS cell viability assays (Aqueous One assay, Promega, Madison, WI, USA) were conducted 72 h after treatment initiation according to the manufacturer’s instructions. […] Control cells were treated with corresponding vehicle concentration. […] IC50 were calculated by fitting variable slope non-linear curves to normalised response data from drug treatments using GraphPad Prism v5 (GraphPad Software Inc., La Jolla, CA, USA). Assays were replicated at least three times in triplicates.

[2] = system: JVM2 cells; assay: MTS cell viability assay, JVM2 cells (control or overexpressing UGT2B17); type: cell-based, human; conditions: for IC50: Homo sapiens, JVM-2, 72 h; for Fold over control: JVM2, IC50 2B17 / CTRL
Method: as §1

[3] = system: human liver microsomes; assay: Glucuronidation assay with human liver microsomes; conditions: for Glucuronide (G) products formed: pooled human liver microsomes, MS
Method: (§2) Electrospray ionisation was performed in the positive ion mode.

[4] = system: individual human UGT isoforms; assay: Screening of tissues and individual recombinant UGT1A (n = 8) and UGT2B (n = 6) enzymes by quantitative MS; conditions: liver, kidney, intestine and recombinant UGTs
Method: as §2

[5] = system: fludarabine glucuronidation; assay: Fludarabine glucuronidation in drug-treated cell models; type: cell-based, human
Method: as §2

[6] = system: JVM2 cells; conditions: JVM2, Annexin V/PI, 72 h
Method: (§3) Cells plated in 96-well plates at 2 × 10^4 cells/well (MEC1) or 3 × 10^4 cells/well (JVM2) were exposed to varying drug concentrations as above for 72 h. Cells were washed, labelled for 12 min with Annexin V (1:200) and PI (2 µg/ml) in Annexin V binding buffer, then immediately analysed by flow cytometry on a FACSCelesta equipped with a high throughput sampler (BD Bioscience). Annexin V labelling assays were replicated at least twice in duplicates.
(§4) MEC1 (a, c, e) and JVM2 (b, d, f) cells expressing low or high UGT2B17 levels were exposed to
(§5) increasing drug concentrations. Cells were stained with Annexin V (AnV) and propidium iodide (PI) 72
(§6) hours after treatment initiation. The AV-/PI- cells constituted the viable cell population.

[7] = system: MEC1 cells; conditions: MEC1, Annexin V/PI, 72 h
Method: as §3, §4, §5, §6

[8] = target: T1, human liver microsomes; assay: Glucuronidation assay with human liver microsomes; conditions: UGT1A4 inhibitory constant Ki, Liver, inhibitor hecogenin
Method: as §2

[9] = target: T2, UGT1A4; assay: Glucuronidation assay with UGT1A4 supersomes; conditions: for Ki: UGT1A4 inhibitory constant Ki, UGT1A4, inhibitor hecogenin
Method: In the absence of commercially available UGT2B11 supersomes, microsomal proteins derived from HEK293 expressing the recombinant UGT2B11 enzyme were used. […] Samples were then stopped by adding 100 µL cold methanol, centrifuged at 16,000×g for 10 min and supernatants analysed by mass spectrometry. The following negative controls were included for each analysis: reaction assays without substrate, without the microsomal fraction and without substrate and microsomal fraction.

[10] = Glucuronidation assay with human liver microsomes; conditions: human, human liver microsomes, pH 7.5
Method: as §2

[11] = system: UGT2B17 expression; assay: UGT2B17 mRNA by RT-qPCR in drug-treated cell models; type: cell-based, human; conditions: MEC1, JVM2 and EHEB cells, drug treatment; P < 0.01
[12] = substrate: Nc1nc(F)nc2c1ncn2[C@@H]1O[C@H](CO)[C@@H](O)[C@@H]1O; assay: cells, lysate or membranes named; conditions: predominant drug-G, pH 7.5, 37.0 °C
[13] = MEC1 cells overexpressing UGT2B17, MTS, read-out: 2B17 IC50
[14] = MEC1 control cells, MTS, read-out: CTRL IC50
[15] = JVM2 cells overexpressing UGT2B17, MTS, read-out: 2B17 IC50
[16] = JVM2 control cells, MTS, read-out: CTRL IC50

Row | Molecule | IC50 [1, 13] | IC50 [1, 14] | IC50 [2, 15] | IC50 [2, 16] | Glucuronide (G) products formed [3] | Fold over control [1] | Fold over control [2] | other results
1 | C=CC(=O)N1CCC[C@@H](n2nc(-c3ccc(Oc4ccccc4)cc3)c3c(N)ncnc32)C1 [Ibrutinib, ibrutinib] | 4.13 µM | 0.99 µM | 8.95 µM | 3.64 µM | – | – | – | –
2 | C[C@H](Nc1ncnc2[nH]cnc12)c1cc2cccc(Cl)c2c(=O)n1-c1ccccc1 [duvelisib] | – | – | – | – | at least one G product | – | – | –
3 | Cn1c(CCCC(=O)O)nc2cc(N(CCCl)CCCl)ccc21 [Bendamustine, bendamustine] | 76 µM | 60.1 µM | 62.8 µM | 54.2 µM | at least one G product | 1.27 | 1.16 | –
4 | CCS(=O)(=O)N1CCN(c2ccc(Nc3ncc(C(N)=O)c(NC4CC4)n3)cc2)CC1 [cerdulatinib] | – | – | – | – | at least one G product | – | – | UGT enzyme(s) involved in glucuronidation of the drug [4]: UGT2B17 plays a role in the inactivation
5 | CC[C@H](Nc1ncnc2[nH]cnc12)c1nc2cccc(F)c2c(=O)n1-c1ccccc1 [Idelalisib, idelalisib] | 7.4 µM | 1.73 µM | 2.95 µM | 1.79 µM | – | – | – | Fludarabine glucuronidation following drug treatment [5]: increased; Cytotoxicity at clinically relevant concentrations [6]: low and no cytotoxicity; Cytotoxicity at clinically relevant concentrations [7]: low and no cytotoxicity
6 | C[C@@H]1CC[C@@]2(OC1)O[C@H]1C[C@H]3[C@@H]4CC[C@H]5C[C@@H](O)CC[C@]5(C)[C@H]4CC(=O)[C@]3(C)[C@H]1[C@@H]2C [Hecogenin, hecogenin] | – | – | – | – | – | – | – | Ki ([8]; substrate ibrutinib): 5.8 µM; Ki ([8]; substrate idelalisib): 0.9 µM; Formation of ibrutinib and idelalisib G1 and G2 abolished ([9]; UGT1A4 and livers, in the presence of hecogenin): ~90%; Ki ([9]; substrate ibrutinib): 2.8 µM; Ki ([9]; substrate idelalisib): 0.6 µM
7 | CC1(C)CCC(CN2CCN(c3ccc(C(=O)NS(=O)(=O)c4ccc(NCC5CCOCC5)c([N+](=O)[O-])c4)c(Oc4cnc5[nH]ccc5c4)c3)CC2)=C(c2ccc(Cl)cc2)C1 [Venetoclax, venetoclax] | 4.16 µM | 2.22 µM | 2.94 µM | 4.06 µM | at least one G product | 1.87 | 0.72 | –
8 | CC#CC(=O)N1CCC[C@H]1c1nc(-c2ccc(C(=O)Nc3ccccn3)cc2)c2c(N)nccn12 [acalibrutinib, acalabrutinib] | – | – | – | – | at least one G product | – | – | –
9 | Nc1nc(F)nc2c1ncn2[C@@H]1O[C@H](CO)[C@@H](O)[C@@H]1O [Fludarabine, fludarabine] | 58.8 µM | 29.3 µM | 15.1 µM | 9.08 µM | two glucuronides | 2.01 | 1.66 | Km at 6 h [10]: 878 µM; Velocity Vmax ([3]; Liver, predominant drug-G, velocity at highest substrate concentration): 0.12 pmol/min/mg protein; Fludarabine glucuronidation following drug treatment [5]: increased; Induction of UGT2B17 expression [11]: significantly induced; Concentration at which cytotoxic [6]: > 5 µM; Cytotoxicity at clinically relevant concentrations [6]: no cytotoxicity; Concentration at which cytotoxicity was observed [7]: > 40 µM; Cytotoxicity at clinically relevant concentrations [7]: no cytotoxicity; UGT enzyme(s) involved in glucuronidation of the drug [4]: UGT2B17 and UGT1A4 were the main conjugating enzymes
10 | O=C(O)CCCc1ccc(N(CCCl)CCCl)cc1 [Chlorambucil, chlorambucil] | 12.3 µM | 7.99 µM | 8.64 µM | 10.4 µM | at least one G product | 1.55 | 0.83 | UGT enzyme(s) involved in glucuronidation of the drug [4]: UGT2B17 plays a role in the inactivation
11 | UGT1A4 (Homo sapiens) (protein) GKVLVVPTDGSPWLSMREALRELHARGHQAVVLTPEVNMHIKEEKFFTLTAYAVPWTQKEFDRVTLGYTQGFFETEHLLKRYSRSMAIMNNVSLALHRCCVELLHNEALIRHLNATSFDVVLTDPVNLCGAVLAKYLSIPAVFFWRYIPCDLDFKGTQCPNPSSYIPKLLTTNSDHMTFLQRVKNMLYPLALSYICHTFSAPYASLASELFQREVSVVDLVSYASVWLFRGDFVMDYPRPIMPNMVFIGGINCANGKPLSQEFEAYINASGEHGIVVFSLGSMVSEIPEKKAMAIADALGKIPQTVLWRYTGTRPSNLANNTILVKWLPQNDLLGHPMTRAFITHAGSHGVYESICNGVPMVMMPLFGDQMDNAKRMETKGAGVTLNVLEMTSEDLENALKAVINDKSYKENIMRLSSLHKDRPVEPLDLAVFWVEFVMRHKGAPHLRPAAHDLTWYQYHSLDVIGFLLAVVLTVAFITFKCCAYGYRKCLGKKGRVKKAHKSKTH | – | – | – | – | – | – | – | Km ([12]; other: UGT1A4): 1020 µM; Vmax ([12]; other: UGT1A4): 0.05 pmol/min/mg protein
12 | UGT2B17 (Homo sapiens) (protein) GKVLVWPTEYSHWINMKTILEELVQRGHEVIVLTSSASILVNASKSSAIKLEVYPTSLTKNDLEDFFMKMFDRWTYSISKNTFWSYFSQLQELCWEYSDYNIKLCEDAVLNKKLMRKLQESKFDVLLADAVNPCGELLAELLNIPFLYSLRFSVGYTVEKNGGGFLFPPSYVPVVMSELSDQMIFMERIKNMIYMLYFDFWFQAYDLKKWDQFYSEVLGRPTTLFETMGKAEMWLIRTYWDFEFPRPFLPNVDFVGGLHCKPAKPLPKEMEEFVQSSGENGIVVFSLGSMISNMSEESANMIASALAQIPQKVLWRFDGKKPNTLGSNTRLYKWLPQNDLLGHPKTKAFITHGGTNGIYEAIYHGIPMVGIPLFADQHDNIAHMKAKGAALSVDIRTMSSRDLLNALKSVINDPIYKENIMKLSRIHHDQPVKPLDRAVFWIEFVMRHKGAKHLRVAAHNLTWIQYHSLDVIAFLLACVATMIFMITKCCLFCFRKLAKTGKKKKRD | – | – | – | – | – | – | – | Km ([12]; other: UGT2B17): 949 µM; Vmax ([12]; other: UGT2B17): 0.01 pmol/min/mg protein
